Here are results for five molecules from patent US20240174618A1, “SUBSTITUTED (2-HETEROARYLOXYPHENYL)SULFONATES, SALTS THEREOF AND THEIR USE AS HERBICIDAL AGENTS” (Bayer Aktiengesellschaft, priority 2021, published 2024).

Common to all, as to format: in vivo
Data set [1] relates to Triticum aestivum (TRZAS). The experiment in a line: D. Pre-emergence effect on useful plants, TRZAS. As to conditions: useful plant. The method, boiled down: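 Seeds sown in pots and covered with soil; WP or EC formulations sprayed on the soil surface as aqueous suspension/emulsion with 0.5% additive at 600 l/ha water. Plants grown in greenhouse; crop damage scored visually after about 3 weeks as % versus untreated controls (100% = dead, 0% = like control).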

Data set [2] deals with Amaranthus retroflexus (AMARE). In words: B. Herbicidal post-emergence efficacy, AMARE. In outline:
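Weeds grown in sandy loam in greenhouse pots, sprayed at one-leaf stage (2–3 weeks after sowing) with WP or EC formulations as aqueous suspension/emulsion plus 0.5% additive at 600 L/ha water, rates up to 1280 g/ha. Visual efficacy rated about 3 weeks later versus untreated controls (0% = like control, 100% = dead).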

The test system of data set [3] is Lolium rigidum (LOLRI). The experiment in a line: A. Herbicidal pre-emergence efficacy, LOLRI. The method, boiled down: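 Pre-emergence soil-surface spray in sandy loam pots, WP/EC in water plus 0.5% additive, 600 L/ha. Visual % damage rating after about 3 weeks in greenhouse vs. untreated; 0% = control-like, 100% = dead plants. Rates up to 1280 g/ha.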
The subject of data set [4] is Amaranthus retroflexus (AMARE). In words: E. Herbicidal post-emergence efficacy, AMARE. In outline: (§1)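 Greenhouse post-emergence spray, one-leaf stage (2–3 wk after sowing, sandy loam); WP/EC formulation, aqueous + 0.5% additive, 600 l/ha water; rates 320 g/ha or less. Visual rating ~3 wk later vs untreated; 0% = control-like, 100% = dead.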
The test system of data set [5] is Veronica persica (VERPE). In words: E. Herbicidal post-emergence efficacy, VERPE. The method, boiled down:
as §1

In data set [6] the test system is Digitaria sanguinalis (DIGSA). In words: C. Herbicidal pre-emergence efficacy, DIGSA. As to conditions: scored after about 3 weeks. In outline:
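Pre-emergence test: formulated compounds sprayed as aqueous suspension or emulsion with 0.5% additive at 600 l/ha onto soil covering sown seeds, at rates corresponding to 320 g/ha or less. After about 3 weeks in greenhouse, efficacy scored visually as percent versus untreated controls (100% = plants dead).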

Data set [7] concerns Abutilon theophrasti (ABUTH). The experiment in a line: E. Herbicidal post-emergence efficacy, ABUTH. The method, boiled down: as §1
In data set [8] the test system is Setaria viridis (SETVI). The experiment in a line: E. Herbicidal post-emergence efficacy, SETVI. The method, boiled down:
as §1

The test system of data set [9] is Kochia scoparia (KCHSC). In words: E. Herbicidal post-emergence efficacy, KCHSC. The method, boiled down:
as §1

On to `O=S(=O)(CCCCl)Oc1cccc(F)c1Oc1ncc(Cl)cn1` [Example I-13], for which the “Pre-emergence efficacy against TRZAS in %” value in [1] (application rate 80 g/ha) and in data set [1] (application rate 320 g/ha) was 10% each time. The “Post-emergence efficacy against AMARE” value in data set [2] (320 g/ha) came to 90%; in data set [2] (1280 g/ha), 100%. Moreover, the “Pre-emergence efficacy against LOLRI” value in [3] (dosage 1280 g/ha) came out at 90%. Moreover, the “Post-emergence efficacy against AMARE in %” value in data set [4] (application rate 320 g/ha) amounted to 80%. The “Post-emergence efficacy against VERPE in %” value in data set [5] (application rate 320 g/ha) was 90%.

As to `O=S(=O)(CCCC(F)(F)F)Oc1c(F)cccc1Oc1ncc(Cl)cn1` [Example I-49], the “Pre-emergence efficacy against DIGSA” value in [6] (80 g/ha) and in data set [6] (320 g/ha) was 100% in each case. Besides, the “Post-emergence efficacy against AMARE” value stood at 90% in data set [2] (80 g/ha), 90% in [2] (320 g/ha) and 100% in data set [2] (1280 g/ha). Further, the “Post-emergence efficacy against ABUTH in %” value in data set [7] (application rate 80 g/ha) and in data set [7] (application rate 320 g/ha) was 80% each time. Besides, the “Pre-emergence efficacy against LOLRI” value in [3] (dosage 320 g/ha) and in data set [3] (dosage 1280 g/ha) was 90% each time. Besides, the “Post-emergence efficacy against AMARE in %” value in data set [4] (application rate 80 g/ha) and in data set [4] (application rate 320 g/ha) was 100% each time. Also, the “Post-emergence efficacy against SETVI in %” value in data set [8] (application rate 80 g/ha) and in data set [8] (application rate 320 g/ha) was 100% each time. For the same molecule, the “Post-emergence efficacy against VERPE in %” value in data set [5] (application rate 80 g/ha) and in data set [5] (application rate 320 g/ha) was 100% in each case. Besides, the “Post-emergence efficacy against KCHSC in %” value in [9] (application rate 80 g/ha) and in data set [9] (application rate 320 g/ha) was 100% in each case.

In the case of `O=S(=O)(CC1CC(F)(F)C1)Oc1c(F)cccc1Oc1ncc(Cl)cn1` [Example I-53], the “Pre-emergence efficacy against DIGSA” value in [6] (80 g/ha) and in [6] (320 g/ha) was 100% each time. Also, the “Post-emergence efficacy against AMARE” value in data set [2] (80 g/ha), in data set [2] (320 g/ha) and in data set [2] (1280 g/ha) was 90% in each case. Further, the “Post-emergence efficacy against ABUTH in %” value in data set [7] (application rate 80 g/ha) and in [7] (application rate 320 g/ha) was 100% in each case. Also, the entries for the “Pre-emergence efficacy against LOLRI” value in data set [3] (dosage 320 g/ha) and in [3] (dosage 1280 g/ha) were 90% and 100%, respectively. Also, the “Post-emergence efficacy against AMARE in %” value in data set [4] (application rate 80 g/ha) and in data set [4] (application rate 320 g/ha) was 100% each time. Also, the “Post-emergence efficacy against SETVI in %” value in [8] (application rate 80 g/ha) and in [8] (application rate 320 g/ha) was 100% in each case. The “Post-emergence efficacy against VERPE in %” value in data set [5] (application rate 80 g/ha) and in [5] (application rate 320 g/ha) was 100% each time. Further, the “Post-emergence efficacy against KCHSC in %” value in data set [9] (application rate 80 g/ha) and in [9] (application rate 320 g/ha) was 90% in each case.

With `O=S(=O)(CCC(F)(F)F)Oc1c(F)cccc1Oc1ncc(Br)cn1` [Example I-40], the “Pre-emergence efficacy against DIGSA” value in data set [6] (80 g/ha) and in data set [6] (320 g/ha) was 100% throughout. Moreover, the “Post-emergence efficacy against AMARE” value in [2] (320 g/ha) and in data set [2] (1280 g/ha) was 90% in each case. Moreover, the “Post-emergence efficacy against ABUTH in %” value came out at 90% in [7] (application rate 80 g/ha) and 100% in data set [7] (application rate 320 g/ha). In addition, the “Pre-emergence efficacy against LOLRI” value in [3] (dosage 320 g/ha) and in data set [3] (dosage 1280 g/ha) was 100% in each case. For the same molecule, the “Post-emergence efficacy against AMARE in %” value in [4] (application rate 80 g/ha) and in data set [4] (application rate 320 g/ha) was 100% each time. For the same molecule, the “Post-emergence efficacy against SETVI in %” value in data set [8] (application rate 80 g/ha) and in data set [8] (application rate 320 g/ha) was 100% each time. In addition, the “Post-emergence efficacy against VERPE in %” value in data set [5] (application rate 80 g/ha) and in [5] (application rate 320 g/ha) was 100% each time. Besides, the “Post-emergence efficacy against KCHSC in %” value in data set [9] (application rate 80 g/ha) and in [9] (application rate 320 g/ha) was 100% in each case.

Take `CCCS(=O)(=O)Oc1ccccc1Oc1ncc(Cl)cn1` [Example I-3]: in [1] (application rate 80 g/ha), the “Pre-emergence efficacy against TRZAS in %” value is given as 10%. Besides, the “Post-emergence efficacy against AMARE” value is recorded as 90% in data set [2] (80 g/ha), 100% in [2] (320 g/ha) and 100% in data set [2] (1280 g/ha). For the same molecule, the “Pre-emergence efficacy against LOLRI” value in data set [3] (dosage 320 g/ha) and in [3] (dosage 1280 g/ha) was 100% each time. The “Post-emergence efficacy against AMARE in %” value in data set [4] (application rate 320 g/ha) amounted to 100%. Also, the “Post-emergence efficacy against SETVI in %” value in [8] (application rate 320 g/ha) came out at 90%. The “Post-emergence efficacy against VERPE in %” value in data set [5] (application rate 80 g/ha) is 80%; in data set [5] (application rate 320 g/ha) it was 90%.
